Like-named read-outs stand apart in the source and are kept apart here.
How the values were obtained:
Assay type in all cases: biochemical
[1] = molecular target: T1, Recombinant human glycogen synthase kinase 3 beta (Homo sapiens, UniProt P49841); test: GSK-3 beta inhibition assay (33P-ATP, GS-2 peptide); conditions: 0.5 h, percentage of the enzyme activity (remaining), read-out: % Act. GSK-3 beta; for remaining activity at 25 µM: compound at 25 μM; for remaining activity at 50 µM: compound at 50 μM
T1 sequence (P49841 whole entry): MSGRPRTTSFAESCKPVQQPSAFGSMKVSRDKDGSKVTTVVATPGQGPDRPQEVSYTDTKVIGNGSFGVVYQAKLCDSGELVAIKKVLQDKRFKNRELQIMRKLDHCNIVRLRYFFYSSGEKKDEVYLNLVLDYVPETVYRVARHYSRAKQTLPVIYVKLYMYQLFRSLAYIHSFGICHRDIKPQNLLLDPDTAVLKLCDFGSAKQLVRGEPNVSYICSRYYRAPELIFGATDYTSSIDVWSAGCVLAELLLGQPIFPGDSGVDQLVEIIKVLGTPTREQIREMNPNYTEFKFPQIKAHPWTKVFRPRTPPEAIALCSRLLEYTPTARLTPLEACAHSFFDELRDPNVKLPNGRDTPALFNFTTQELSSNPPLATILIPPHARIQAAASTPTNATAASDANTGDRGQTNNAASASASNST
Experimental: The GSK-3 beta activity of the compounds of formula (I) according to the present invention was determined by incubation of a mixture of recombinant human GSK-3 enzyme, a phosphate source and GSK-3 substrate in the presence and in the absence of the corresponding test compound, and by measuring the GSK-3 activity of this mixture. The compounds where tested at final concentrations of 25 and 50 μM.
Recombinant human glycogen synthase kinase 3 beta was assayed in MOPS 11 mM, pH 7.4, EDTA 0.2 mM, EGTA 1.25 mM, MgCl2 26.25 mM and sodium orthovanadate 0.25 mM in the presence of 62.5 μM of Phospho-Glycogen Synthase Peptide-2 (GS-2), 0.5 μCi gamma-^33P-ATP and unlabelled ATP at a final concentration of 12.5 μM. The final assay volume was 20 μl. After incubation for 30 minutes at 30° C., 15 μl aliquots were spotted onto P81 phosphocellulose papers. Filters were washed four times for at least 10 minutes each and counted with 1.5 ml of scintillation cocktail in a scintillation counter.
The compounds of formula (I) of the present invention where submitted to the above indicated assay, in order to determine their GSK-3 inhibition activity. The results are indicated in Table II, in percentage of the enzyme activity.

[2] = molecular target: T2, rhBACE-1 β-Secretase recombinant human (Homo sapiens, UniProt P56817); test: BACE assay (FRET, fluorogenic peptide substrate); conditions: for % BACE Activity: percentage of the enzyme activity (remaining)
T2 construct: purchased R&D Systems 931-AS
T2 sequence (P56817 46-457 limits assumed): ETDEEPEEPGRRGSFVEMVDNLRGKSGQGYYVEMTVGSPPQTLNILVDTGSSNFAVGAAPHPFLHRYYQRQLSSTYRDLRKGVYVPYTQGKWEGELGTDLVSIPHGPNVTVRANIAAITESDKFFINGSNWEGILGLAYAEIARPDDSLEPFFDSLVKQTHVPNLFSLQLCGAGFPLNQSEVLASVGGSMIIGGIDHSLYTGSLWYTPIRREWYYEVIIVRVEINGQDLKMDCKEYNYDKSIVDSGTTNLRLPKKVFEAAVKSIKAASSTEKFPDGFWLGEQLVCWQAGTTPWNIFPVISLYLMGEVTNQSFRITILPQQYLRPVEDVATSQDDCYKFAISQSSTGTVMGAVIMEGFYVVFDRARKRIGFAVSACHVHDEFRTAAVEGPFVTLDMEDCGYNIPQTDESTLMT
Description: The aim of this assay is to determine if a compound, either synthetic or of marine origin, is a BACE-1 inhibitor, to avoid the formation of Aβ. This assay is based on FRET technology (Fluorescence Resonance Energy Transfer). FRET is used to measure cleavage of a peptide substrate, among other uses. […] When a substrate peptide cleavage occurs, the energy balance is broken and all the donor fluorescence can be observed. The increase in fluorescence is linearly related to the rate of proteolysis (Gordon, G W et al., 1998). In this assay the reaction occurs between an enzyme, purified BACE-1, and a fluorogenic peptidic substrate who present the “Swedish mutation”. The peptide cleavage by BACE-1 produces fluorescence energy and enzymatic activity can be quantified.
The reagents which are used in this assay are the following:
rhBACE-1 β-Secretase recombinant human (R&D Systems. Ref. 931-AS).
Fluorogenic Peptide Substrate IV (R&D Systems. Ref. ES004).
Beta-SECRETASE INHIBITOR H-4848. (BACHEM. Ref. H-4848.0001).
The assay is carried out in a 96 wells microplate. The final concentration of substrate is 3.5 μM per well, and the enzyme concentration is 0.5 μg/ml. The final volume of the assay is 100 μl per well and all reagents are diluted in Reaction Buffer.
The compounds are tested at a concentration of 10^−5 and 10^−6 M. The control in the assay is the commercial inhibitor β-Secretase inhibitor H-4848 from BACHEM, which is tested at 300 nM. All the samples and controls are studied by duplicate.
The plate is mixed gently and changes in the fluorescence are measured using a fluorimeter plate reader, with 320 nm excitation filter and 405 nm emission filter. The temperature should be preferably maintained between 25 and 30° C. Measurements are carried out every ten minutes during an hour. The first measure is subtracted from the last to calculate the fluorescence increase, evaluating the enzymatic activity. The 100% activity is calculated as the mean of the results of wells without sample or inhibitor.
In the cases where abnormal effects in fluorescence were detected, BACE inhibition activity was assayed using BACE-1 (beta-Secretase) FRET ASSAY KIT (Invitrogen, Ref. P2985). Fluorescence was measured with a fluorimeter plate reader, with 544 nm excitation filter and 580 nm emission filter.
Further information regarding this assay may be found in the following references, which are incorporated by reference into the present application: • Andrau, D et al; “BACE1- and BACE2-expressing human cells: characterization of beta-Amyloid precursor protein-derived catabolites, design of a novel fluorimetric assay, and identification of new in vitro inhibitors”. J Biol Chem. 2003 Jul. 11; 278(28):25859-66. • Gordon, G W et al; “Quantitative fluorescence resonance energy transfer measurements using fluorescence microscopy.” Biophys J. 1998 May; 74:2702-13.
The compounds of formula (I) of the present invention where submitted to the above indicated assay, in order to determine their BACE activity inhibition. The results are indicated in Table I, in percentage of the enzyme activity.

[3] = molecular target: T1, Recombinant human glycogen synthase kinase 3 beta; test: GSK-3 beta inhibition assay (33P-ATP, GS-2 peptide)

remaining activity at 25 µM [1] [%]	remaining activity at 50 µM [1] [%]	% BACE Activity ([2]; compound at 1 μM) [%]	% BACE Activity ([2]; compound at 10 μM) [%]	IC50 [3] [µM]	IC50 ([2]; given in M) [µM]	IC50 [2] [µM]	Compound
24.6	3.27	100	5 ± 9	11			CC(C)=CCC/C(C)=C/CC/C(C)=C/Cc1cc(C(=O)O)ccc1O [Compound 15]
33.5	3.08	100	42 ± 5	16			COCOc1ccc(C=O)cc1C/C=C(\C)CCC=C(C)C [Compound 8, (2E)-3-(3,7-dimethyl-octa-2,6-dienyl)-4-methoxymethoxy-benzaldehyde]
	70.8						COC(=O)c1ccc(O)c(C/C=C(\C)CC/C=C(\C)CC/C=C(\C)CCC=C(C)C)c1 [Compound 5]
100	79.9	88 ± 9	27 ± 3				COCOc1ccc(C(=O)O)cc1C/C=C(\C)CCC=C(C)C [Compound 21]
75.7	60.3	100	84 ± 6				CC(C)=CCC/C(C)=C/Cc1cc(C(=O)O)ccc1O [Compound 14]
9.18	4.5	100	100	22			COCOC(=O)c1ccc(O)c(C/C=C(\C)CC/C=C(\C)CC/C=C(\C)CCC=C(C)C)c1 [Compound 25]
61.3	5.75	94 ± 22	60 ± 16		37		COCOc1ccc(C=O)cc1C/C=C(\C)CC/C=C(\C)CCC=C(C)C [Compound 9, (2E,6E)-4-methoxymethoxy-3-(3,7,11-trimethyl-dodeca-2,6,10-trienyl)-benzaldehyde]
71.4	41	100	100				CC(C)=CCC/C(C)=C/CC/C(C)=C/Cc1cc(C(=O)O)ccc1OCc1ccccc1 [Compound 26]
17.1	2.44	87 ± 10	33 ± 7	18			COCOc1ccc(C(=O)O)cc1C/C=C(\C)CC/C=C(\C)CCC=C(C)C [Compound 28]
10.7	4.58	87 ± 14.5	17.5 ± 0.7	2.77		20.5 ± 2.8	CC(=O)Oc1ccc(C(=O)O)cc1C/C=C(\C)CC/C=C(\C)CC/C=C(\C)CCC=C(C)C [Compound 19]
5.43	2.82	45 ± 21	0	4.42			CC(C)=CCC/C(C)=C/CC/C(C)=C/CC/C(C)=C/Cc1cc(C(=O)O)ccc1O [Compound 1, (2E,6E,10E)-4-Hydroxy-3-(3,7,11,15-tetramethyl-hexadeca-2,6,10,14-tetraenyl)-benzoic acid]

More lines, now with the values behind:

Compound	remaining activity at 25 µM [1] [%]	remaining activity at 50 µM [1] [%]	% BACE Activity ([2]; compound at 1 μM) [%]	% BACE Activity ([2]; compound at 10 μM) [%]	IC50 [3] [µM]	IC50 ([2]; given in M) [µM]	IC50 [2] [µM]
CC(C)=CCC/C(C)=C/CC/C(C)=C/CC/C(C)=C/Cc1cc(C(=O)OCc2ccccc2)ccc1OCc1ccccc1 [Compound 17]	71.9	52.1	100	100			
CC(C)=CCC/C(C)=C/CC/C(C)=C/Cc1cc(C=O)ccc1O [Compound 12]	9.26	0.95	57 ± 2	41 ± 4	7.87		
CC(C)=CCC/C(C)=C/CC/C(C)=C/CC/C(C)=C/Cc1cc(C=O)ccc1O [Compound 13]	52	4.71	100	88 ± 8.5	17.4		
CC(C)=CCC/C(C)=C/CC/C(C)=C/Cc1cc(C=O)ccc1OCc1ccccc1 [Compound 23]	2.22	2.01	99 ± 2	88 ± 13			
CC(C)=CCC/C(C)=C/Cc1cc(C(=O)O)ccc1OCc1ccccc1 [Compound 27]	85.1	65.8	34 ± 27	0 ± 0			
C/C(=C\CC/C(C)=C/CC/C(C)=C/Cc1cc(C(=O)O)ccc1O)C/C=C/C(C)(C)O [Compound 3]	52.9	4.19			55.8		
CC(C)=CCC/C(C)=C/Cc1cc(C=O)ccc1O [Compound 11]	12.1	1.07	91 ± 6	44 ± 12	8.6		
COCOC(=O)c1ccc(OC(C)=O)c(C/C=C(\C)CC/C=C(\C)CC/C=C(\C)CCC=C(C)C)c1 [Compound 20, (2E,6E,10E)-4-Acetoxy-3-(3,7,11,15-tetramethyl-hexadeca-2,6,10,14-tetraenyl)-benzoic acid methoxymethyl ester]	51	17.7	100	100			
CC(C)=CCc1cc(C(=O)O)ccc1O [Compound 6]	71.6	78	100	100			
CC(C)=CCC/C(C)=C/CC/C(C)=C/CC/C(C)=C/Cc1cc(C(=O)OCc2ccccc2)ccc1O [Compound 24]	49.7	22.8	100	100			
CC(C)=CCC/C(C)=C/CC/C(C)=C/CC/C(C)=C/CC/C(C)=C/Cc1cc(O)ccc1O [Compound 4]	17.8	17.7			9.97		
CC(C)=CCC/C(C)=C/CC/C(C)=C/CC/C(C)=C/Cc1cc(O)ccc1O [Compound 2]	37.7	5.04	100	13 ± 14	12.5		
CCNC(=O)c1ccc(O)c(C/C=C(\C)CC/C=C(\C)CC/C=C(\C)CCC=C(C)C)c1 [Compound 18]	32.8	13.3	100	100			

Source: patent publication US20110092591A1, “PHENYL-PRENYL DERIVATIVES, OF MARINE AND SYNTHETIC ORIGIN, FOR THE TREATMENT OF COGNITIVE, NEURODEGENERATIVE OR NEURONAL DISEASES OR DISORDERS” (NOSCIRA S.A., priority 2008, published 2011)
